Several values for one entry are separate records, joined by “and”; a condition that tells them apart may be missing. Equal values may be shown once.
Test system: creatininase (BBI Solutions)
Assay: BBI Solutions Creatininase Enzyme Absorbance with BSA and MIT
Assay type: biochemical
[1] = Day 0, 5 mg/mL BSA, no MIT (row of 50 ppm MIT)
[2] = Day 0, 5 mg/mL BSA, no MIT (row of 100 ppm MIT)
[3] = Day 0, 25 mg/mL BSA, no MIT (row of 50 ppm MIT)
[4] = Day 0, 25 mg/mL BSA, no MIT (row of 100 ppm MIT)
[5] = Day 0, 50 mg/mL BSA, no MIT (row of 50 ppm MIT)
[6] = Day 0, 50 mg/mL BSA, no MIT (row of 100 ppm MIT)
[7] = Day 0, 50 ppm MIT, 25 mg/mL BSA
[8] = Day 0, 50 ppm MIT, 50 mg/mL BSA
[9] = Day 4, 5 mg/mL BSA, no MIT (row of 50 ppm MIT)
[10] = Day 4, 5 mg/mL BSA, no MIT (row of 100 ppm MIT)
[11] = Day 4, 25 mg/mL BSA, no MIT (row of 50 ppm MIT)
[12] = Day 4, 25 mg/mL BSA, no MIT (row of 100 ppm MIT)
[13] = Day 4, 50 mg/mL BSA, no MIT (row of 50 ppm MIT)
[14] = Day 4, 50 mg/mL BSA, no MIT (row of 100 ppm MIT)
[15] = Day 14, 5 mg/mL BSA, no MIT (row of 50 ppm MIT)
[16] = Day 14, 5 mg/mL BSA, no MIT (row of 100 ppm MIT)
[17] = Day 14, 25 mg/mL BSA, no MIT (row of 50 ppm MIT)
[18] = Day 14, 25 mg/mL BSA, no MIT (row of 100 ppm MIT)
[19] = Day 14, 50 mg/mL BSA, no MIT (row of 50 ppm MIT)
[20] = Day 14, 50 mg/mL BSA, no MIT (row of 100 ppm MIT)

Method: Table 5-8 depict aqueous solutions comprising varying concentrations of BSA (at concentrations of 0 mg/mL, 5 mg/mL, 25 mg/mL, and 50 mg/mL), varying concentrations of MIT (at concentrations of 50 parts per million and 100 parts per million) or Proclin™ 300 (at concentrations of 0.7% and 1.4%) biocide over a particular time period (measurements were taken at days 0, 4, and 14 after exposure of the enzyme(s) to the particular aqueous solutions) and the associated enzyme absorbance measurements for creatininase (commercially offered for sale by BBI Solutions and Toyobo). Absorbance measurements of the creatininase enzyme(s) were taken via spectrophotometer for each aqueous solution (represented as columns 1-5 in Tables 5-8—column 6 is a blank), the absorbance being directly proportional to the enzyme activity being measured-which for Tables 5-8 is creatininase enzyme activity. Accordingly, the higher the absorbance measurement, the higher the enzyme activity of creatininase. Columns 7-11 represent five replicate readings in which the solution only contains BSA (i.e., there is no biocide(s) present in the solution). In addition, the mean values, standard deviations, and coefficients of variation are all presented for the enzyme activity/absorbance of each aqueous solution. All measurements were taken at 37° C.
As depicted in Table 5, creatininase (commercially offered for sale by BBI Solutions) enzyme activity is measured against various concentrations of MIT (biocide) and BSA (scavenger protein) over a period of 14 days (with absorbance measurement taken at 0, 4, and 14 days) for five different aqueous solutions (represented as columns 1-5—column 6 is a blank).

Substance: bovine serum albumin [BSA]
- Creatininase Enzyme Absorbance, columns 7-11 [1]: 0.717 and 0.707 and 0.75 and 0.728
- MEAN (columns 7-11) [1]: 0.51
- Creatininase Enzyme Absorbance, columns 7-11 [2]: 0.767 and 0.759 and 0.781 and 0.761 and 0.773
- MEAN (columns 7-11) [2]: 0.56
- Creatininase Enzyme Absorbance, columns 7-11 [3]: 0.736 and 0.712 and 0.709 and 0.752 and 0.746
- MEAN (columns 7-11) [3]: 0.52
- Creatininase Enzyme Absorbance, columns 7-11 [4]: 0.688 and 0.694 and 0.72 and 0.733 and 0.705
- MEAN (columns 7-11) [4]: 0.50
- Creatininase Enzyme Absorbance, columns 7-11 [5]: 0.759 and 0.723 and 0.742 and 0.773 and 0.777
- MEAN (columns 7-11) [5]: 0.54
- Creatininase Enzyme Absorbance, columns 7-11 [6]: 0.661 and 0.68 and 0.708 and 0.702 and 0.686
- MEAN (columns 7-11) [6]: 0.48
- % Bias (Day 0, 50 ppm MIT vs no MIT, 5 mg/mL BSA): 6.0%
- % Bias (Day 0, 50 ppm MIT vs no MIT, 25 mg/mL BSA): 4.8%
- % Bias (Day 0, 50 ppm MIT vs no MIT, 50 mg/mL BSA): 3.6%
- Creatininase Enzyme Absorbance (Day 0, 50 ppm MIT, 5 mg/mL BSA): 0.774 and 0.737 and 0.726 and 0.733 and 0.74
- MEAN (Day 0, 50 ppm MIT, 5 mg/mL BSA): 0.54
- Creatininase Enzyme Absorbance [7]: 0.751 and 0.713 and 0.818 and 0.733
- MEAN [7]: 0.54
- Creatininase Enzyme Absorbance [8]: 0.773
- MEAN [8]: 0.56
- % Bias (Day 0, 100 ppm MIT vs no MIT, 5 mg/mL BSA): 6.8%
- % Bias (Day 0, 100 ppm MIT vs no MIT, 25 mg/mL BSA): 8.0%
- % Bias (Day 0, 100 ppm MIT vs no MIT, 50 mg/mL BSA): 3.7%
- MEAN (Day 0, 100 ppm MIT, 5 mg/mL BSA): 0.59
- MEAN (Day 0, 100 ppm MIT, 25 mg/mL BSA): 0.54
- MEAN (Day 0, 100 ppm MIT, 50 mg/mL BSA): 0.49
- Creatininase Enzyme Absorbance, columns 7-11 [9]: 0.95 and 0.906 and 0.917 and 0.926 and 0.911
- MEAN (columns 7-11) [9]: 0.71
- Creatininase Enzyme Absorbance, columns 7-11 [10]: 0.927 and 0.89 and 0.906 and 0.925 and 0.892
- MEAN (columns 7-11) [10]: 0.69
- Creatininase Enzyme Absorbance, columns 7-11 [11]: 0.821 and 0.794 and 0.77 and 0.793
- MEAN (columns 7-11) [11]: 0.59
- Creatininase Enzyme Absorbance, columns 7-11 [12]: 0.793 and 0.779 and 0.783 and 0.8 and 0.814
- MEAN (columns 7-11) [12]: 0.58
- Creatininase Enzyme Absorbance, columns 7-11 [13]: 0.621 and 0.592 and 0.597 and 0.625 and 0.622
- MEAN (columns 7-11) [13]: 0.40
- Creatininase Enzyme Absorbance, columns 7-11 [14]: 0.647 and 0.629 and 0.631 and 0.657 and 0.637
- MEAN (columns 7-11) [14]: 0.43
- % Bias (Day 4, 50 ppm MIT vs no MIT, 5 mg/mL BSA): 3.8%
- % Bias (Day 4, 50 ppm MIT vs no MIT, 25 mg/mL BSA): 4.5%
- % Bias (Day 4, 50 ppm MIT vs no MIT, 50 mg/mL BSA): 14.7%
- MEAN (Day 4, 50 ppm MIT, 5 mg/mL BSA): 0.73
- MEAN (Day 4, 50 ppm MIT, 25 mg/mL BSA): 0.61
- MEAN (Day 4, 50 ppm MIT, 50 mg/mL BSA): 0.46
- % Bias (Day 4, 100 ppm MIT vs no MIT, 5 mg/mL BSA): 2.3%
- % Bias (Day 4, 100 ppm MIT vs no MIT, 25 mg/mL BSA): 2.7%
- % Bias (Day 4, 100 ppm MIT vs no MIT, 50 mg/mL BSA): 14.0%
- MEAN (Day 4, 100 ppm MIT, 5 mg/mL BSA): 0.71
- MEAN (Day 4, 100 ppm MIT, 25 mg/mL BSA): 0.60
- MEAN (Day 4, 100 ppm MIT, 50 mg/mL BSA): 0.49
- Creatininase Enzyme Absorbance, columns 7-11 [15]: 1.062 and 1.055 and 1.027 and 1.067 and 1.069
- MEAN (columns 7-11) [15]: 0.80
- Creatininase Enzyme Absorbance, columns 7-11 [16]: 1.061 and 1.054 and 1.018 and 1.051
- MEAN (columns 7-11) [16]: 0.79
- Creatininase Enzyme Absorbance, columns 7-11 [17]: 0.931 and 0.918 and 0.882 and 0.905 and 0.92
- MEAN (columns 7-11) [17]: 0.65
- Creatininase Enzyme Absorbance, columns 7-11 [18]: 0.91 and 0.907 and 0.879 and 0.898 and 0.905
- MEAN (columns 7-11) [18]: 0.64
- Creatininase Enzyme Absorbance, columns 7-11 [19]: 0.745 and 0.73 and 0.711 and 0.727 and 0.732
- MEAN (columns 7-11) [19]: 0.47
- Creatininase Enzyme Absorbance, columns 7-11 [20]: 0.74 and 0.737 and 0.713 and 0.724
- MEAN (columns 7-11) [20]: 0.47
- % Bias (Day 14, 50 ppm MIT vs no MIT, 5 mg/mL BSA): 1.8%
- % Bias (Day 14, 50 ppm MIT vs no MIT, 25 mg/mL BSA): −0.5%
- % Bias (Day 14, 50 ppm MIT vs no MIT, 50 mg/mL BSA): −2.4%
- MEAN (Day 14, 50 ppm MIT, 5 mg/mL BSA): 0.81
- MEAN (Day 14, 50 ppm MIT, 25 mg/mL BSA): 0.65
- MEAN (Day 14, 50 ppm MIT, 50 mg/mL BSA): 0.46
- % Bias (Day 14, 100 ppm MIT vs no MIT, 5 mg/mL BSA): 0.3%
- % Bias (Day 14, 100 ppm MIT vs no MIT, 25 mg/mL BSA): −1.0%
- % Bias (Day 14, 100 ppm MIT vs no MIT, 50 mg/mL BSA): 0.7%
- MEAN (Day 14, 100 ppm MIT, 5 mg/mL BSA): 0.79
- MEAN (Day 14, 100 ppm MIT, 25 mg/mL BSA): 0.64
- MEAN (Day 14, 100 ppm MIT, 50 mg/mL BSA): 0.47
- absorbance of the creatininase enzyme compared to samples containing 0 mg/mL of BSA (days 4 and 14, 5, 25 and 50 mg/mL BSA, with MIT): increased absorbance
- creatininase absorbance, solutions 7-11 (days 4 and 14, only BSA, no MIT): increased (or at least maintained)
- BSA concentration at which the creatininase absorbance measurement is highest (days 4 and 14, with MIT): 5 mg/mL

From patent publication US11339419B2, “Scavenger protein(s) for improved preservation of analyte detection sensor(s) and method(s) of use thereof” (Siemens Healthcare Diagnostics Inc., priority 2017, dated 2022)
